According to patent US20180015038A1, “OMEGA-3 FATTY ACID SELF-EMULSIFYING COMPOSITION” (MOCHIDA PHARMACEUTICAL CO., LTD., priority 2015, published 2018):

Experiment: Evaluation of appearance (Test Example 1)
Type: physicochemical
Conditions: allowed to stand, about 1 hour after production; transparent / separated / cloudy
Procedure: After producing the pharmaceutical compositions and the self-emulsifying compositions of Reference Examples by the production methods as described above, the compositions were allowed to stand, and after about 1 hour, their appearance was evaluated. The composition was evaluated “transparent” when the composition was homogeneous due to the good compatibility. The composition was evaluated “separated” when the separation was observed and “cloudy” when opacity was observed.

For `CC(C)c1c(C(=O)Nc2ccccc2)c(-c2ccccc2)c(-c2ccc(F)cc2)n1CC[C@@H](O)C[C@@H](O)CC(=O)[O-].CC(C)c1c(C(=O)Nc2ccccc2)c(-c2ccccc2)c(-c2ccc(F)cc2)n1CC[C@@H](O)C[C@@H](O)CC(=O)[O-].[Ca+2]` [atorvastatin calcium], which Appearance is on record?
The Appearance was “good appearance was not realized”.
